Laboratory results published in patent US7071187B2, “Naphthyridine derivatives” (Otsuka Pharmaceutical Factory, Inc., priority 2001, dated 2006).

What was measured:
[1] = system: male S.D. rats injected with Substance P; experiment: Pharmacological Test 3: analgesic effect (Randall-Sellitto pain threshold after Substance P injection); type: in vivo, rat; conditions: for analgesic effect (in words): conclusion from Table 15; for Recovery rate (%) of the pain threshold (highest recovery rate): oral, 5% gum arabic suspension 10 ml/kg, measurement point 60 minutes after Substance P injection
Experimental: Pharmacological Test 3 Test for Evaluating Analgesic Effect Using two groups (test group and control group) each consisting of 6-week-old male S.D. rats (7 rats in each group), the pain threshold of each rat's left hind paw was measured using an Analgesy-meter (product of Unicom) in accordance with the Randall-Sellitto method [Randall, L. O. and Sellitto, J. J., Arch. Int. Pharmacodyn., 111, 409–419 (1957)]. The value thus obtained was termed “pre-value”. One hour after the measurement of the pre-value, a 5% gum arabic suspension containing compound of the invention was orally administered to the rats of the test group in an amount of 10 ml/kg, whereas a 5% gum arabic suspension (not containing compound of the invention) was orally administered to the rats of the control group in an amount of 10 ml/kg. One hour after the oral administration, a physiological saline solution containing Substance P (25 ng/0.1 ml) was subcutaneously injected into the left hind paw of each rat. The pain threshold of each rat's left hind paw was measured in the same manner as above at predetermined time intervals after the Substance P injection. The measured value is termed the “post-value”. The recovery rate (%) of the pain threshold was calculated from the post-values and pre-values of the test group and control group, by means of the following formula: [formula]

[2] = system: streptozotocin (STZ) treated male S.D. rats; experiment: Pharmacological Test 1: therapeutic effect on diabetic neuropathy (Randall-Selitto pain threshold in STZ rats); type: in vivo, rat; conditions: 30 mg/kg orally once a day, three hours after administration, left hind paw
Experimental: Pharmacological Test 1 Therapeutic Effect on Diabetic Neuropathy A model group was obtained by intravenously administering 50 mg/kg streptozotocin (STZ) dissolved in 0.01 M citrate buffer solution to 8-week-old male S.D. rats. After administration, five rats were housed per cage and kept therein. Three weeks after administration of STZ, the pain threshold of each rat's left hind paw to pressure stimulation was measured by Randall-Selitto Test [Randall, L. O. and Selitto, J. J. Arch. Int. Pharmacodyn., 111, 409–419 (1957)]. The value thus obtained was termed “pre-value”. […] A 5% gum arabic solution containing the test compound was orally administered as specimen to experimental animals in one of the above three groups (test group) in such a manner that each dosage of the test compound was 30 mg/kg and the amount of administered solution was 10 ml/kg, once a day for 21 continuous days. […] On the 14th and 21st days, the pain threshold of the left hind paw of the experiment animals was measured three hours after administration. The recovery rate (%) of the pain threshold was calculated by means of the following formula: Recovery rate (%)=[(T−C)/(N−C)]×100 (wherein T is the test group average value, C is the control group average value and N is the non-treated group average value.)

[3] = system: excised ilea of Hartley male guinea pigs; experiment: Pharmacological Test 2: adenosine enhancing effect on electrically stimulated contraction of excised ileum; conditions: guinea pig ileum, n=2
Experimental: Adenosine Enhancing Effect
The compounds obtained in Examples 1 and 34 were used as test compounds in the form of a dimethyl sulfoxide solution.
As experimental animals, Hartley male guinea pigs (purchased from CHARLES RIVER JAPAN, INC.) (that were in good general condition at least 6 days after the purchase) were used. The animals were housed in a cage under controlled conditions of temperature of 20 to 26° C. (actually measured value: 22.1 to 22.9° C.), humidity of 40–70% (actually measured value: 50.3–51.5%) and lighting of 12 hours/day (7:00–19:00). The animals had free access to food (solid diet, product name of Labo G Standard, product of Nosan Corporation) and tap water.
The following experiments were conducted using the excised ilea (n=2) of experimental animals (body weight at the time of testing: 316–388 g). The experimental animals were bled and slaughtered. […] The contraction reaction of samples was recorded on an ink-writing recorder (GRAPHTEC, SR-6211, SR-6221) through an isotonic transducer (product of NIHON KOHDEN CORPORATION, TD-112S). […]
That is, the nutrient solution was exchanged, electronic stimulation was applied to the samples 15 minutes after exchange of the nutrient solution, and, when contraction stabilized, adenosine was cumulatively added from 10^−6 M to 10^−5 M. The adenosine dose-response curve was then obtained, and the ED50 value was calculated. […]

melting point [°C] | SMILES | also measured
147 to 149 | COc1cc(OCCC[S+](C)c2c([O-])c3cccnc3n(Cc3ccccc3)c2=O)cc(OC)c1OC (centres unmarked) [Example 1, 1-benzyl-3-[methyl-3-(3,4,5-trimethoxyphenoxy)propylsulfonium]-1,8-naphthyridine-2(1H)-one-4-olate] | analgesic effect (in words) [1]: excellent analgesic effect; Recovery rate (%) of the pain threshold (highest recovery rate) [1]: 46%; Recovery rate (%) of the pain threshold, 14th day ([2]; 14th day): 46.2%; Recovery rate (%) of the pain threshold, 21st day ([2]; 21st day): 56.7%; Adenosine enhancing effect (ED50(−)/ED50(+)) ([3]; test compound concentration 10^−6 M): 11.11
130 to 132 | C[S+](CCOCc1ccccc1)c1c([O-])c2cccnc2n(Cc2ccccc2)c1=O (centres unmarked) [Example 2] | 
145 to 147 | C[S+](CCCOc1ccc(Cl)cc1)c1c([O-])c2cccnc2n(Cc2ccccc2)c1=O (centres unmarked) [Example 3] | 
161 to 163 | Cc1cccc(C)c1COCC[S+](C)c1c([O-])c2cccnc2n(Cc2ccccc2)c1=O (centres unmarked) [Example 4] | 
165 to 167 | Cc1cc(C)c(COCC[S+](C)c2c([O-])c3cccnc3n(Cc3ccccc3)c2=O)c(C)c1 (centres unmarked) [Example 5] | 
157 to 159 | C[S+](CCOCc1cc(C(F)(F)F)cc(C(F)(F)F)c1)c1c([O-])c2cccnc2n(Cc2ccccc2)c1=O (centres unmarked) [Example 6] | 
124 to 126 | C[S+](CCOCc1ccc2c(c1)OCO2)c1c([O-])c2cccnc2n(Cc2ccccc2)c1=O (centres unmarked) [Example 7] | 
84 to 87 | COc1cc(COCC[S+](C)c2c([O-])c3cccnc3n(Cc3ccccc3)c2=O)cc2c1OCO2 (centres unmarked) [Example 8] | 
132 to 134 | COc1cc(COCC[S+](C)c2c([O-])c3cccnc3n(Cc3ccccc3)c2=O)cc(O)c1OC (centres unmarked) [Example 9] | 
121 to 123 | COc1cc(COCC[S+](C)c2c([O-])c3cccnc3n(Cc3ccccc3)c2=O)cc(OC)c1O (centres unmarked) [Example 10] | 
 | COc1cc(Cn2c(=O)c([S+](C)CCOc3cc(OC)c(OC)c(OC)c3)c([O-])c3cccnc32)cc(OC)c1OC (centres unmarked) [Example 15, 1-(3,4,5-trimethoxybenzyl)-3-[methyl-2-(3,4,5-trimethoxyphenoxy)ethylsulfonium]-1,8-naphthyridine-2(1H)-one-4-olate] | analgesic effect (in words) [1]: excellent analgesic effect; Recovery rate (%) of the pain threshold (highest recovery rate) [1]: 39%
 | CC[S+](CCCOc1cc(OC)c(OC)c(OC)c1)c1c([O-])c2cccnc2n(Cc2ccccc2)c1=O (centres unmarked) [Example 34, 1-benzyl-3-[ethyl-3-(3,4,5-trimethoxyphenoxy)propylsulfonium]-1,8-naphthyridine-2(1H)-one-4-olate] | Adenosine enhancing effect (ED50(−)/ED50(+)) ([3]; test compound concentration 10^−5 M): 14.00
 | COc1cc(OCC[S+](C)c2c([O-])c3cccnc3n(C)c2=O)cc(OC)c1OC (centres unmarked) [Example 36, 1-methyl-3-[methyl-2-(3,4,5-trimethoxyphenoxy)ethylsulfonium]-1,8-naphthyridine-2(1H)-one-4-olate] | analgesic effect (in words) [1]: excellent analgesic effect; Recovery rate (%) of the pain threshold (highest recovery rate) [1]: 111%
